Converted amounts (≈) assume the structure as drawn.
Key:
S. marcescens IPM-16 = assay: In vitro antibacterial MIC; type: cell-based; details: Serratia marcescens, IPM16, 18 h, pH 7
Procedure: (§1) The minimum inhibitory concentration (MIC) was determined by a two-fold serial tube dilution method using nutrient agar (pH7, Difco containing 10^5 cfu/ml).

M. morganii I510 = assay: In vitro antibacterial MIC; type: cell-based; details: Morganella morganii, pH 7; M. morganii I510; nutrient agar pH7, 32° C., 18 hours; read-out: MIC
Procedure: as §1

M. luteus PCI 1001 = assay: In vitro antibacterial MIC; type: cell-based; details: Micrococcus luteus, PCI1001, pH 7, nutrient agar pH7, 32° C., 18 hours
Procedure: as §1

E. coli Juhl A15119 = assay: In vitro antibacterial MIC; type: cell-based; details: Escherichia coli, JUHLA15119, pH 7; E. coli Juhl A15119; nutrient agar pH7, 32° C., 18 hours; read-out: MIC
Procedure: as §1

E. coli 255 = assay: In vitro antibacterial MIC; type: cell-based; details: Escherichia coli, pH 7; E. coli 255; nutrient agar pH7, 32° C., 18 hours; read-out: MIC
Procedure: as §1

P. aeruginosa A9843A = assay: In vitro antibacterial MIC; type: cell-based; details: Pseudomonas aeruginosa, 18 h, pH 7
Procedure: as §1

X. maltophilia GN12873 = assay: In vitro antibacterial MIC; type: cell-based; details: Stenotrophomonas maltophilia, pH 7, nutrient agar pH7, 32° C., 18 hours
Procedure: as §1

S. marcescens IPM-15 = assay: In vitro antibacterial MIC; type: cell-based; details: Serratia marcescens, IPM15, pH 7; S. marcescens IPM-15; nutrient agar pH7, 32° C., 18 hours; read-out: MIC
Procedure: as §1

P. vulgaris IPM-13 = assay: In vitro antibacterial MIC; type: cell-based; details: Proteus vulgaris, IPM13, pH 7; P. vulgaris IPM-13; nutrient agar pH7, 32° C., 18 hours; read-out: MIC
Procedure: as §1

S. aureus IPM-24 (MRSA) = assay: In vitro antibacterial MIC; type: cell-based; details: Staphylococcus aureus, 18 h, pH 7
Procedure: as §1

P. cepecia No. 651 = assay: In vitro antibacterial MIC; type: cell-based; details: 18 h, pH 7
Procedure: as §1

P. mirabilis IFO 3849 = assay: In vitro antibacterial MIC; type: cell-based; details: Proteus mirabilis, IFO3849, pH 7; P. mirabilis IFO 3849; nutrient agar pH7, 32° C., 18 hours; read-out: MIC
Procedure: as §1

P. cepecia A21213 = assay: In vitro antibacterial MIC; type: cell-based; details: 18 h, pH 7
Procedure: as §1

S. aureus A15036 (MRSA) = assay: In vitro antibacterial MIC; type: cell-based; details: Staphylococcus aureus, 18 h, pH 7
Procedure: as §1

P. aeruginosa IPM-9 = assay: In vitro antibacterial MIC; type: cell-based; details: Pseudomonas aeruginosa, IPM9, pH 7; P. aeruginosa IPM-9; nutrient agar pH7, 32° C., 18 hours; read-out: MIC
Procedure: as §1

P. aeruginosa KKA19 = assay: In vitro antibacterial MIC; type: cell-based; details: Pseudomonas aeruginosa, pH 7, nutrient agar pH7, 32° C., 18 hours
Procedure: as §1

E. faecalis A9808 = assay: In vitro antibacterial MIC; type: cell-based; details: Enterococcus faecalis, pH 7; E. faecalis A9808; nutrient agar pH7, 32° C., 18 hours; read-out: MIC
Procedure: as §1

K. pneumoniae PCI 602 = assay: In vitro antibacterial MIC; type: cell-based; details: Klebsiella pneumoniae, PCI602, pH 7; K. pneumoniae PCI 602; nutrient agar pH7, 32° C., 18 hours; read-out: MIC
Procedure: as §1

E. cloacae IPM-12 = assay: In vitro antibacterial MIC; type: cell-based; details: Enterobacter cloacae, IPM12, pH 7; E. cloacae IPM-12; nutrient agar pH7, 32° C., 18 hours; read-out: MIC
Procedure: as §1

P. aeruginosa IPM-8 = assay: In vitro antibacterial MIC; type: cell-based; details: Pseudomonas aeruginosa, IPM8, pH 7; P. aeruginosa IPM-8; nutrient agar pH7, 32° C., 18 hours; read-out: MIC
Procedure: as §1

X. maltophilia No. 661 = assay: In vitro antibacterial MIC; type: cell-based; details: Stenotrophomonas maltophilia, pH 7, nutrient agar pH7, 32° C., 18 hours
Procedure: as §1

P. rettgeri IPM-14 = assay: In vitro antibacterial MIC; type: cell-based; details: Providencia rettgeri, IPM14, pH 7; P. rettgeri IPM-14; nutrient agar pH7, 32° C., 18 hours; read-out: MIC
Procedure: as §1

P. aeruginosa A20599 = assay: In vitro antibacterial MIC; type: cell-based; details: Pseudomonas aeruginosa, pH 7; P. aeruginosa A20599; nutrient agar pH7, 32° C., 18 hours; read-out: MIC
Procedure: as §1

S. aureus smith = assay: In vitro antibacterial MIC; type: cell-based; details: Staphylococcus aureus, pH 7; S. aureus smith; two-fold serial dilution, nutrient agar pH7, 32° C., 18 hours; read-out: MIC
Procedure: as §1

S. epidermidis 11-1230 = assay: In vitro antibacterial MIC; type: cell-based; details: Staphylococcus epidermidis, 111230, pH 7; S. epidermidis 11-1230; nutrient agar pH7, 32° C., 18 hours; read-out: MIC
Procedure: as §1

E. faecium A24817 = assay: In vitro antibacterial MIC; type: cell-based; details: Enterococcus faecium, pH 7, nutrient agar pH7, 32° C., 18 hours
Procedure: as §1

[1] = system: Candida albicans ATCC 38247; assay: In vitro antifungal MIC; type: cell-based; details: ATCC38247, pH 7; Candida albicans ATCC 38247, amphotericin resistant strain; yeast morphology agar pH7.0, 28° C., 40 hours; read-out: MIC
Procedure: (§2) The antifungal MICs of dynemicin C and its triacetate were determined by an agar dilution method on yeast morphology agar adjusted to pH7.0 with 1/15M phosphate buffer. A 5 μl aliquot of fungal suspension containing 10^6 cells/ml was inoculated onto the surface of the antibiotic-containing agar plates with a multiinoculator.

[2] = system: Cryptococcus neoformans D49; assay: In vitro antifungal MIC; type: cell-based; details: Cryptococcus neoformans, D49, 40 h, pH 7
Procedure: as §2

C. neoformans IAM4514 = assay: In vitro antifungal MIC; type: cell-based, Cryptococcus neoformans; details: Cryptococcus neoformans, IAM4514, 40 h, pH 7
Procedure: as §2

[3] = system: B16-F10 (murine melanoma) cells; assay: In vitro cytotoxicity; type: cell-based; details: Mus musculus, 72 hours, 37° C., neutral red, 540 nm
Procedure: Dynemicin C and its triacetate derivative were tested for in vitro cytotoxicity against murine and human tumor cell lines. Dynemicin A and its triacetate derivative were used as reference compounds. B16-F10 (murine melanoma) cells were grown to the logarithmic phase in enriched Eagle minimum essential medium (MEM) supplemented with fetal calf serum (FCS, 10%) and kanamycin (60 mcg/ml) and HCT-116 (human colon carcinoma) cells in Maccoy's 5A medium supplemented with FCS (10%), penicillin (100 μ/ml) and streptomycin (100 mcg/ml), and were harvested and inoculated into wells of the 96- or 24-well tissue culture plate with test materials at concentrations of 1.5×10^4, 1.3×10^4, 1.3×10^4, 2.5×10^4 and 3.0×10^4 cells/ml., respectively. They were incubated at 37° C. in a humidified atmosphere of 5% CO2 and 95% air for 72 hours. The cytotoxic activities were determined colorimetrically at 540 nm after staining viable cells with 0.006% neutral red solution.

NCC[C@H](O)C(=O)N[C@@H]1C[C@H](N)[C@@H](O[C@H]2O[C@H](CN)[C@@H](O)[C@H](O)[C@H]2O)[C@H](O)[C@H]1O[C@H]1O[C@H](CO)[C@@H](O)[C@H](N)[C@H]1O [Amikacin, reference compound]
MIC (S. marcescens IPM-16): 100 µg/mL (≈ 171 µM) | MIC (M. morganii I510): 25 µg/mL (≈ 42.7 µM) | MIC (M. luteus PCI 1001): 3.1 µg/mL (≈ 5.29 µM) | MIC (E. coli Juhl A15119): 12.5 µg/mL (≈ 21.3 µM) | MIC (E. coli 255): 6.3 µg/mL (≈ 10.8 µM) | MIC (P. aeruginosa A9843A): 3.1 µg/mL (≈ 5.29 µM) | MIC (X. maltophilia GN12873): > 100 µg/mL | MIC (S. marcescens IPM-15): 12.5 µg/mL (≈ 21.3 µM) | MIC (P. vulgaris IPM-13): 6.3 µg/mL (≈ 10.8 µM) | MIC (S. aureus IPM-24 (MRSA)): 100 µg/mL (≈ 171 µM) | MIC (P. cepecia No. 651): > 100 µg/mL | MIC (P. mirabilis IFO 3849): 25 µg/mL (≈ 42.7 µM) | MIC (P. cepecia A21213): > 100 µg/mL | MIC (S. aureus A15036 (MRSA)): 3.1 µg/mL (≈ 5.29 µM) | MIC (P. aeruginosa IPM-9): 1.6 µg/mL (≈ 2.73 µM) | MIC (P. aeruginosa KKA19): 3.1 µg/mL (≈ 5.29 µM) | MIC (E. faecalis A9808): 50 µg/mL (≈ 85.4 µM) | MIC (K. pneumoniae PCI 602): 1.6 µg/mL (≈ 2.73 µM) | MIC (E. cloacae IPM-12): 25 µg/mL (≈ 42.7 µM) | MIC (P. aeruginosa IPM-8): 6.3 µg/mL (≈ 10.8 µM) | MIC (X. maltophilia No. 661): > 100 µg/mL | MIC (P. rettgeri IPM-14): 12.5 µg/mL (≈ 21.3 µM) | MIC (P. aeruginosa A20599): 1.6 µg/mL (≈ 2.73 µM) | MIC (S. aureus smith): 1.6 µg/mL (≈ 2.73 µM) | MIC (S. epidermidis 11-1230): 25 µg/mL (≈ 42.7 µM) | MIC (E. faecium A24817): 100 µg/mL (≈ 171 µM)

C[C@@H]1[C@H](O)[C@@H](C)/C=C/C=C/C=C/C=C/C=C/C=C/C=C/[C@H](O[C@@H]2O[C@H](C)[C@@H](O)[C@H](N)[C@@H]2O)C[C@@H]2O[C@](O)(C[C@@H](O)C[C@@H](O)[C@H](O)CC[C@@H](O)C[C@@H](O)CC(=O)O[C@H]1C)C[C@H](O)[C@H]2C(=O)O [Amphotericin B, reference compound]
MIC [1]: 50 µg/mL (≈ 54.1 µM) | MIC [2]: 0.2 µg/mL (≈ 0.216 µM) | MIC (C. neoformans IAM4514): 0.4 µg/mL (≈ 0.433 µM)

COC1=C(C(=O)O)C(C)C23OC24c2cc(OC(C)=O)c5c(c2NC3C#CC=CC#CC14)C(=O)c1c(OC(C)=O)ccc(OC(C)=O)c1C5=O (stereo not drawn) [Dynemicin A acetate, reference compound]
IC50 [3]: 0.0007 µg/mL

— patent US5162330A, “Dynemicin C antibiotic, its triacetyl derivative and pharmaceutical composition containing same” (Bristol-Myers Squibb Co., priority 1990, dated 1992)
